This note sets out measurements from PubChem BioAssay AID1259408 (Genetic Toxicology Data Bank (GENE-TOX), 2018).

For the series, the system named is GENE-TOX genotoxicity assays, various organisms and cells. Briefly: GENE-TOX mutagenicity studies. The conditions noted are these: for call: Assay Type: In vivo carcinogenicity studies.
The mark [1] stands for this setting: Species/Cell Type: Nonhuman, Assay Code: CCGT, Evaluation Type: Evaluation A (Pre-1980).
Setting [2] is: Species/Cell Type: Syrian hamster embryo (SHE) cells, Assay Type: Cell transformation, clonal assay, Assay Code: CTC+, Evaluation Type: Evaluation A (Pre-1980).
The mark [3] stands for this setting: Species/Cell Type: Human, Assay Type: Sister-chromatid exchange (SCE) in vitro, Assay Code: SC1+D, Dose Response: With dose response, Evaluation Type: Evaluation B (Post-1980).
[4] abbreviates: Species/Cell Type: Salmonella typhimurium (one or more of the five standard strains: TA98, TA100, TA1535, TA1537, and TA1538), Assay Type: Histidine reverse gene mutation, Ames assay, Assay Code: SAL+, Evaluation Type: Evaluation A (Pre-1980).
Setting [5] is: Species/Cell Type: Saccharomyces cerevisiae, Assay Type: Mitotic recombination or gene conversion, Assay Code: YEH+, Evaluation Type: Evaluation A (Pre-1980).
Where [6] appears, read: Species/Cell Type: Escherichia coli polA (W3119 vs P3478), Assay Type: Rec-assay, DNA effects (bacterial DNA repair), Assay Code: RE1-, Evaluation Type: Evaluation A (Pre-1980).
The mark [7] stands for this setting: Species/Cell Type: Chinese hamster lung (V79) cells, Assay Type: Forward gene mutation at the HPRT or ouabain locus, Assay Code: V79+, Evaluation Type: Evaluation A (Pre-1980).
Setting [8] is: Species/Cell Type: Nonhuman, Assay Type: Sister-chromatid exchange (SCE) in vitro, Assay Code: SC2+D, Dose Response: With dose response, Evaluation Type: Evaluation B (Post-1980).

Active and inactive are the calls of the source. The rule behind the calls is not given here.

Take `S=C=Nc1cccc2ccccc12`: the mutagenic call by setting is: (Species/Cell Type: Escherichia coli polA (W3110 vs P3478), Assay Type: Rec-assay, DNA effects (bacterial DNA repair), Assay Code: RE2-, Evaluation Type: Evaluation A (Pre-1980)) “inactive; negative”; (Species/Cell Type: Escherichia coli polA (W3119 vs P3478), Assay Type: Rec-assay, DNA effects (bacterial DNA repair), Assay Code: RE1T, Evaluation Type: Evaluation A (Pre-1980)) “no conclusion”; (Species/Cell Type: Mouse (BALB/c-3T3) cells, Assay Type: Cell transformation, Assay Code: CTB+D, Dose Response: With dose response, Evaluation Type: Evaluation A (Pre-1980)) “active; positive”; (Species/Cell Type: Saccharomyces cerevisiae, Assay Type: Mitotic recombination or gene conversion, Assay Code: YEH-, Evaluation Type: Evaluation A (Pre-1980)) “inactive; negative”; (Species/Cell Type: Salmonella typhimurium, Assay Type: Forward and reverse gene mutation, host-mediated assay, Assay Code: HMA-, Evaluation Type: Evaluation A (Pre-1980)) “inactive; negative”; (Species/Cell Type: Syrian hamster embryo (SHE) cells, Assay Type: Cell transformation, clonal assay, Assay Code: CTC-, Evaluation Type: Evaluation A (Pre-1980)) “inactive; negative”. Moreover, under setting [1], the call is given as “no conclusion”.

`CCOP(=S)(OCC)SC1OCCOC1SP(=S)(OCC)OCC` (stereo not drawn): the call (Species/Cell Type: Nonhuman, Assay Code: CCG-, Evaluation Type: Evaluation A (Pre-1980)) was “inactive; negative”.

As for `CC(=O)[O-].CC(=O)[O-].[Cd+2]`, the call under setting [1] is given as “no conclusion”. Also, the mutagenic call (Species/Cell Type: Nonhuman, Assay Type: Sister-chromatid exchange (SCE) in vitro, Assay Code: SC2-, Evaluation Type: Evaluation B (Post-1980)) was “inactive; negative”; the mutagenic call (Species/Cell Type: Syrian hamster embryo (SA7/SHE) cells, Assay Type: Cell transformation, viral enhanced, Assay Code: CT7+, Evaluation Type: Evaluation A (Pre-1980)) was “active; positive”; the mutagenic call under setting [2] was “active; positive”.

In the case of `CSC\C=C(C)/C=C\C=C(C)/C=C\C1=C(C)CCCC1(C)C`, the mutagenic call under setting [3] is “active; positive”.

Turning to `Cc1cc(O)c2c(c1O)C(=O)c1c(O)ccc(O)c1C2=O`, the mutagenic call under setting [4] is “active; positive”.

Turning to `ClC(Cl)=C(Cl)Cl`, the mutagenic call reads like this: (Species/Cell Type: Fischer rat embryo (RLV/1706) cells, Assay Type: Cell transformation, viral enhanced, Assay Code: CTR+, Evaluation Type: Evaluation A (Pre-1980)) “active; positive”; (Species/Cell Type: Saccharomyces cerevisiae, Assay Type: Mitotic recombination or gene conversion, Assay Code: YEC+, Evaluation Type: Evaluation A (Pre-1980)) “active; positive”; under setting [5], “active; positive”; (Species/Cell Type: Saccharomyces cerevisiae, Assay Type: Reverse gene mutation, Assay Code: YER+, Evaluation Type: Evaluation A (Pre-1980)) “active; positive”; (Species/Cell Type: Syrian hamster embryo (SA7/SHE) cells, Assay Type: Cell transformation, viral enhanced, Assay Code: CT7-, Evaluation Type: Evaluation A (Pre-1980)) “inactive; negative”. For the same compound, the call (Species/Cell Type: Nonhuman, Assay Code: CCG+L, Evaluation Type: Evaluation A (Pre-1980)) was “active; positive”.

For the compound `O=NN(CCCO)CCCCO`, the mutagenic call (Species/Cell Type: Salmonella typhimurium (one or more of the five standard strains: TA98, TA100, TA1535, TA1537, and TA1538), Assay Type: Histidine reverse gene mutation, Ames assay, Assay Code: SALT, Evaluation Type: Evaluation A (Pre-1980)) is “no conclusion”.

Consider `CC1=CCc2c1cc(C)c1c2ccc2ccccc21`, for which the mutagenic call (Species/Cell Type: Salmonella typhimurium (one or more of the five standard strains: TA98, TA100, TA1535, TA1537, and TA1538), Assay Type: Histidine reverse gene mutation, Ames assay, Assay Code: SAL+*, Activation: With metabolic activation, Evaluation Type: Evaluation A (Pre-1980)) was “active; positive”.

As to `CC(=O)CCCCn1c(=O)c2c(ncn2C)n(C)c1=O`, the mutagenic call (Species/Cell Type: Human, Sex: Male, Assay Type: Sperm morphology, Assay Code: SPHT, Evaluation Type: Evaluation A (Pre-1980)) is recorded as “no conclusion”.

Consider `O=C1c2cccc(O)c2C(=O)c2c(O)cc(CO)cc21`, for which, under “Species/Cell Type: Salmonella typhimurium (one or more of the five standard strains: TA98, TA100, TA1535, TA1537, and TA1538), Assay Type: Histidine reverse gene mutation, Ames assay, Assay Code: SAL+/-*, Activation: With metabolic activation, Evaluation Type: Evaluation A (Pre-1980)”, the mutagenic call was “inactive; positive without activation, negative with activation”.

Consider `N[C@@H]1CONC1=O`, for which the mutagenic call under setting [6] was “inactive; negative”.

As for `CS(C)=O.CS(C)=O.CS(C)=O.CS(C)=O.[Cl][Ru][Cl]`, under setting [4], the mutagenic call was “active; positive”.

With `O=C(CCl)NCO`, the mutagenic call (Species/Cell Type: Mammalian polychromatic erythrocytes, Assay Type: Micronucleus test, chromosome aberrations, Assay Code: MNT+, Evaluation Type: Evaluation B (Post-1980)) was “active; positive”.

With `CCN(CC)CCOc1ccc2c(c1)C(=O)c1cc(OCCN(CC)CC)ccc1-2`, the mutagenic call is, setting by setting: (Species/Cell Type: Mouse (C3H/10T1/2) cells, Assay Type: Cell transformation, Assay Code: CTH-, Evaluation Type: Evaluation A (Pre-1980)) “inactive; negative”; (Species/Cell Type: Nonhuman, Assay Type: Sister-chromatid exchange (SCE) in vitro, Assay Code: SC2-, Evaluation Type: Evaluation A (Pre-1980)) “inactive; negative”; (Species/Cell Type: Nonhuman, Assay Type: Sister-chromatid exchange (SCE) in vitro, Assay Code: SC2T, Evaluation Type: Evaluation B (Post-1980)) “no conclusion”; under setting [4], “active; positive”.

For `NS(=O)(=O)c1ccc(C(=O)O)cc1`, the mutagenic call (Species/Cell Type: Mammalian polychromatic erythrocytes, Assay Type: Micronucleus test, chromosome aberrations, Assay Code: MNTT, Evaluation Type: Evaluation B (Post-1980)) is given as “no conclusion”.

On to `CC#CC(OC(=O)NC1CCCCC1)(c1ccccc1)c1ccccc1`, for which the mutagenic call under setting [4] was “active; positive”.

`O=C(NO)c1ccccc1O`: the mutagenic call under setting [4] was “active; positive”.

Take `O.O.O.[Co]`: under “Species/Cell Type: Bacillus subtilis (H17 vs M45), Assay Type: Rec-assay, spot test, DNA effects (bacterial DNA repair), Assay Code: REW+, Evaluation Type: Evaluation A (Pre-1980)”, the mutagenic call was “active; positive”.

As for `COc1cccc(OC)c1C(=O)N[C@@H]1C(=O)N2[C@@H]1SC(C)(C)[C@@H]2C(=O)O`, under setting [6], the mutagenic call was “inactive; negative”.

`CCC[CH2][Sn]([CH2]CCC)([CH2]CCC)[O][Sn]([CH2]CCC)([CH2]CCC)[CH2]CCC`: the mutagenic call (Species/Cell Type: Mammalian polychromatic erythrocytes, Assay Type: Micronucleus test, chromosome aberrations, Assay Code: MNT+U, Dose Response: Unconfirmed positive response, Evaluation Type: Evaluation B (Post-1980)) is “active; positive”.

Take `COC(C)C(O)(C(=O)OCC1=CC[N+]2([O-])CC[C@H](O)[C@H]12)C(C)C` (stereo partly drawn): the mutagenic call (Species/Cell Type: Drosophila melanogaster, Assay Type: Sex-linked recessive lethal gene mutation, Assay Code: SRL+, Evaluation Type: Evaluation A (Pre-1980)) was “active; positive”.

Take `C1O[C@@H]1[C@H]1CO1`: the mutagenic call is “active; positive” (Species/Cell Type: Allium cepa, Assay Type: Chromosome aberrations, Assay Code: ALC+D, Dose Response: With dose response, Evaluation Type: Evaluation A (Pre-1980)); “active; positive” (Species/Cell Type: Arabidopsis species, Assay Type: Gene mutation, Assay Code: ARM+, Evaluation Type: Evaluation A (Pre-1980)); “active; positive” (Species/Cell Type: Schizosaccharomyces pombe, Assay Type: Reverse gene mutation, Assay Code: YEZ+, Evaluation Type: Evaluation A (Pre-1980)); “active; positive” (Species/Cell Type: Zea mays (corn), Assay Type: Gene mutation, Assay Code: ZEM+, Evaluation Type: Evaluation A (Pre-1980)).

As for `CO[C@H]1/C=C/O[C@@]2(C)Oc3c(C)c(O)c4c(O)c(c(/C=N/N5CCN(C)CC5)c(O)c4c3C2=O)NC(=O)/C(C)=C\C=C\[C@H](C)[C@H](O)[C@@H](C)[C@@H](O)[C@@H](C)[C@H](OC(C)=O)[C@@H]1C`, under “Species/Cell Type: Drosophila melanogaster, Assay Type: Sex-linked recessive lethal gene mutation, Assay Code: SRLT, Evaluation Type: Evaluation A (Pre-1980)”, the mutagenic call is reported as “no conclusion”.

As to `c1ccc2c(c1)cc1c3c2ccc2cccc(c23)C2OC12` (stereo not drawn), the mutagenic call is, setting by setting: under setting [7], “active; positive”; (Species/Cell Type: Human diploid fibroblasts, Assay Type: Unscheduled DNA synthesis (UDS) in vitro, DNA effects, Assay Code: UDH+, Evaluation Type: Evaluation A (Pre-1980)) “active; positive”; under setting [3], “active; positive”; (Species/Cell Type: Mouse prostate cells, Assay Type: Cell transformation, Assay Code: CTM+, Evaluation Type: Evaluation A (Pre-1980)) “active; positive”; under setting [8], “active; positive”; under setting [5], “active; positive”. Also, the mutagenic call reads like this: under setting [4], “active; positive”; under setting [2], “active; positive”. The call under setting [1] is reported as “no conclusion”.

For the compound `O=C1CN=C(c2ccccc2)c2cc([N+](=O)[O-])ccc2N1`, the mutagenic call (Species/Cell Type: Aspergillus nidulans, Assay Type: Forward gene mutation, Assay Code: ASF+, Evaluation Type: Evaluation A (Pre-1980)) is “active; positive”.

For the compound `c1c(N2CC2)nc(N2CC2)nc1N1CC1`, the mutagenic call (Species/Cell Type: Aspergillus nidulans, Assay Type: Reverse gene mutation, Assay Code: ASR+, Evaluation Type: Evaluation A (Pre-1980)) was “active; positive”.

Turning to `O[C@@H]1[C@@H]2O[C@@H]2c2cc3ccc4cccc5ccc(c2[C@H]1O)c3c45`, the mutagenic call runs as follows: under setting [7], “active; positive”; under setting [8], “active; positive”.

For `CCC=O`, the mutagenic call runs as follows: (Species/Cell Type: Human lymphocytes, Assay Type: Sister-chromatid exchange (SCE) in vitro, Assay Code: SCL+, Evaluation Type: Evaluation B (Post-1980)) “active; positive”; (Species/Cell Type: Human, Assay Type: Sister-chromatid exchange (SCE) in vitro, Assay Code: SC1+, Evaluation Type: Evaluation B (Post-1980)) “active; positive”.
